Assay results published in PubChem BioAssay AID330 (DTP/NCI, 2004).
Inconclusive results and toxic doses are left out.

System: P388 leukemia ip, CD2F1 mice, survival T/C
Assay: NCI In Vivo Anticancer Drug Screen. Data for tumor model P388 Leukemia (intraperitoneal) in CD2F1 (CDF1) mice
Conditions: endpoint: median survival time, higher = longer survival
Summary of the method: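 Mice carrying the transplanted tumor received test compound or vehicle. Survival was recorded in each group, and the value is the treated-group measurement divided by that of the vehicle-treated control group.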

[1] = dose: 50.0 mg/kg/injection, schedule: Q01DX005 (ip), vehicle: saline with Tween-80
[2] = dose: 100.0 mg/kg/injection, schedule: Q01DX005 (ip), vehicle: saline with Tween-80
[3] = dose: 200.0 mg/kg/injection, schedule: Q01DX005 (ip), vehicle: saline with Tween-80
[4] = dose: 100.0 mg/kg/injection, schedule: Q04DX003 (ip), vehicle: saline with Tween-80
[5] = dose: 200.0 mg/kg/injection, schedule: Q04DX003 (ip), vehicle: saline with Tween-80

**Q.** Which results are given for `C[C@H](N)C(=O)N[C@@H]1[C@H]2C(=C(O)C[C@@H](O)[C@@H]2O)C(=O)O[C@@H]1C`?
**A.** T/C (dose: 150.0 mg/kg/injection, schedule: Q01DX005 (ip), vehicle: saline): 115 % of control; T/C (dose: 600.0 mg/kg/injection, schedule: Q01DX005 (ip), vehicle: suspension in saline): 153 % of control

**Q.** What does the source list for `Cc1cccc(-n2c(C)nc3[nH]cc(C)c3c2=N)c1`?
**A.** T/C (dose: 50.0 mg/kg/injection, schedule: Q01DX005 (ip), vehicle: Klucel (hydroxypropylcellulose) (HPC)): 99 % of control; T/C (dose: 100.0 mg/kg/injection, schedule: Q01DX005 (ip), vehicle: Klucel (hydroxypropylcellulose) (HPC)): 105 % of control

**Q.** `O=C1CSC(c2cccs2)N1CCN1C(=O)CSC1c1cccs1` (stereo not given) was tested. Which T/C (dose: 100.0 mg/kg/injection, schedule: Q04DX002 (ip), vehicle: saline with Tween-80) did it give?
**A.** 100 % of control

**Q.** What about the T/C (dose: 200.0 mg/kg/injection, schedule: Q04DX002 (ip), vehicle: saline with Tween-80) of the same compound?
**A.** 96 % of control

**Q.** What does the source list for `CS(=O)(=O)OCc1cc(=O)c(OS(C)(=O)=O)co1`?
**A.** T/C [1]: 108 % of control; T/C [2]: 110 % of control; T/C [3]: 112 % of control

**Q.** `COc1ccc2c(c1[N+](=O)[O-])CC[C@@H]1[C@@H]2CC[C@]2(C)C(=O)CC[C@@H]12` was tested. Which T/C (dose: 25.0 mg/kg/injection, schedule: Q01DX005 (ip), vehicle: saline with Tween-80) did it give?
**A.** 103 % of control

**Q.** What about the T/C [1] of the same compound?
**A.** 105 % of control

**Q.** And the T/C [2]?
**A.** 99 % of control

**Q.** And the T/C [3]?
**A.** 86 % of control

**Q.** With `CCOC(=O)N1CCc2cc(OC)c(OC)cc2C1(O)Cc1cc(OC)c(OC)cc1Br` (stereo not given) as the compound, how does the T/C (dose: 25.0 mg/kg/injection, schedule: Q01DX009 (ip), vehicle: other) read?
**A.** 109 % of control

**Q.** And the T/C (dose: 50.0 mg/kg/injection, schedule: Q01DX009 (ip), vehicle: other)?
**A.** 106 % of control

**Q.** And the T/C (dose: 100.0 mg/kg/injection, schedule: Q01DX009 (ip), vehicle: other)?
**A.** 103 % of control

**Q.** And the T/C (dose: 200.0 mg/kg/injection, schedule: Q01DX009 (ip), vehicle: other)?
**A.** 113 % of control

**Q.** What about the T/C (dose: 400.0 mg/kg/injection, schedule: Q01DX009 (ip), vehicle: other) of the same compound?
**A.** 113 % of control

**Q.** For `CCCCCCCCCCCCCCC/C([O-])=N/[N+](C)(C)CC(C)O` (stereo not given), which T/C (dose: 50.0 mg/kg/injection, schedule: Q04DX003 (ip), vehicle: Klucel (hydroxypropylcellulose) (HPC)) is on record?
**A.** 99 % of control

**Q.** And the T/C (dose: 100.0 mg/kg/injection, schedule: Q04DX003 (ip), vehicle: Klucel (hydroxypropylcellulose) (HPC))?
**A.** 99 % of control

**Q.** What about the T/C (dose: 200.0 mg/kg/injection, schedule: Q04DX003 (ip), vehicle: Klucel (hydroxypropylcellulose) (HPC)) of the same compound?
**A.** 99 % of control

**Q.** What does the source list for `COc1ccc(/C=c2\sc3nc(-c4ccccc4)nn3c2=O)cc1`?
**A.** T/C (dose: 50.0 mg/kg/injection, schedule: Q01DX009 (ip), vehicle: Klucel (hydroxypropylcellulose) (HPC)): 98 % of control; T/C (dose: 100.0 mg/kg/injection, schedule: Q01DX009 (ip), vehicle: Klucel (hydroxypropylcellulose) (HPC)): 98 % of control

**Q.** For `Nc1cccc(C(=O)c2cccc(N)c2)c1`, which T/C [4] is on record?
**A.** 100 % of control

**Q.** And the T/C [5]?
**A.** 95 % of control

**Q.** And the T/C (dose: 400.0 mg/kg/injection, schedule: Q04DX003 (ip), vehicle: saline with Tween-80)?
**A.** 100 % of control

**Q.** For `O=C(c1ccccc1)c1ccc([N+](=O)[O-])cc1`, which T/C (dose: 3.13 mg/kg/injection, schedule: Q01DX009 (ip), vehicle: saline with Tween-80) is on record?
**A.** 97 % of control

**Q.** And the T/C (dose: 6.25 mg/kg/injection, schedule: Q01DX009 (ip), vehicle: saline with Tween-80)?
**A.** 95 % of control

**Q.** What about the T/C (dose: 12.5 mg/kg/injection, schedule: Q01DX009 (ip), vehicle: saline with Tween-80) of the same compound?
**A.** 91 % of control

**Q.** What about the T/C (dose: 25.0 mg/kg/injection, schedule: Q01DX009 (ip), vehicle: saline with Tween-80) of the same compound?
**A.** 91 % of control

**Q.** And the T/C (dose: 50.0 mg/kg/injection, schedule: Q04DX003 (ip), vehicle: saline with Tween-80)?
**A.** 95 % of control

**Q.** What about the T/C [4] of the same compound?
**A.** 100 % of control

**Q.** And the T/C [5]?
**A.** 109 % of control

**Q.** What does the source list for `COC(=O)/C=C(\C)Oc1c(Cl)c(Cl)c(Cl)c(Cl)c1Cl`?
**A.** T/C (dose: 50.0 mg/kg/injection, schedule: Q04DX003 (ip), vehicle: saline sonified): 110 % of control; T/C (dose: 100.0 mg/kg/injection, schedule: Q01DX009 (ip), vehicle: saline with Tween-80): 91 % of control; T/C (dose: 100.0 mg/kg/injection, schedule: Q04DX003 (ip), vehicle: saline sonified): 110 % of control; T/C (dose: 200.0 mg/kg/injection, schedule: Q01DX009 (ip), vehicle: saline with Tween-80): 100 % of control; T/C (dose: 200.0 mg/kg/injection, schedule: Q04DX003 (ip), vehicle: saline sonified): 110 % of control; T/C (dose: 400.0 mg/kg/injection, schedule: Q01DX009 (ip), vehicle: saline with Tween-80): 91 % of control

**Q.** Which results are given for `COC(=O)C(OC)C(O)C(OC)OC` (stereo not given)?
**A.** T/C [1]: 100 % of control; T/C [2]: 101 % of control; T/C [3]: 104 % of control

**Q.** With `COC(=O)/C=C/c1cc[n+]([O-])cc1` as the compound, how does the T/C (dose: 50.0 mg/kg/injection, schedule: Q01DX005 (ip), vehicle: saline) read?
**A.** 93 % of control

**Q.** And the T/C (dose: 100.0 mg/kg/injection, schedule: Q01DX005 (ip), vehicle: saline)?
**A.** 101 % of control

**Q.** What about the T/C (dose: 200.0 mg/kg/injection, schedule: Q01DX005 (ip), vehicle: saline) of the same compound?
**A.** 101 % of control
